Values of other authors, collected in article PMC8542980, “The Scavenger Function of Liver Sinusoidal Endothelial Cells in Health and Disease” (Frontiers in Physiology, 2021).
Like-named read-outs stand apart in the source and are kept apart here. One block for each molecule: values may come before it.

What was measured:
[1] = tested on: endocytic hyaluronan receptor
[2] = set-up: method as in Fraser et al., 1981; settings: rabbit, ref Fraser et al., 1981
[3] = set-up: method as in Fraser et al., 1984; settings: human, ref Fraser et al., 1984
[4] = rat, 1 μg, tail vein, ref Smedsrød and Einarsson, 1990
[5] = ref Smedsrød et al., 1984, Laurent et al., 1986b
[6] = rats, whole body autoradiography 10 min after injection, ref Fraser et al., 1985

Molecule: C[C@@H]1C[C@@H]([C@H](O)CC2CC(=O)NC(=O)C2)C(=O)[C@@H](C)C1 [cycloheximide]
- effect on the endocytosis of hyaluronan by cultured LSECs (LSECs; inhibitor of protein synthesis, ref McGary et al., 1989): no effect

- inhibition of the binding of hyaluronan by LSECs ([1]; ref Raja et al., 1988, McGary et al., 1989): can also inhibit
Molecule: Dextran sulfate

Molecule: ^125I-tPA: 125I-labeled tissue plasminogen activator
- % eliminated with t1/2α [4]: 65%
- % eliminated with t1/2β [4]: 35%
- Decay of plasma/blood radioactivity, t1/2α [4]: 0.6 min
- Decay of plasma/blood radioactivity, t1/2β [4]: 6.4 min

- inhibition of the uptake and binding of hyaluronan by LSECs ([1]; ref Smedsrød et al., 1984): can inhibit
- affinity of the rat receptor compared with hyaluronan of the same chain length [1, 5]: threefold greater affinity
Molecule: chondroitin sulfate

Molecule: chondroitin sulfate [[^3H]-chondroitin sulfate (CS)]
- site of main uptake (rat, clearance rate not examined, ref Smedsrød et al., 1985b): Clearance rate not examined but the main uptake was in LSECs

- affinity of the rat receptor [1, 5]: no affinity
Molecule: heparan sulfate

Molecule: heparin [listing 1 of 2 here]
- Decay of plasma/blood radioactivity, t1/2 (rat, 0.1 IU/kg, tail vein, ref Øie et al., 2008): 1.71 min
- recovered in liver (rat, after 15 min, ref Øie et al., 2008): 71%

- affinity of the rat receptor [1, 5]: no affinity
Molecule: heparin [listing 2 of 2 here]

Molecule: hyaluronan
- uptake in liver (rat, at 30 min after injection, ref Dahl et al., 1988): 79%
- Decay of plasma/blood radioactivity, t1/2α (rat, tail vein, MW = 2.5 × 10^5, ref Dahl et al., 1988): 0.9 min

Molecule: hyaluronan [[^3H]-hyaluronan]
- Decay of plasma/blood radioactivity, t1/2 ([2]; 30–32 μg, marginal ear vein): 2.5 to 4.5 min
- uptake in liver ([2]; at 19 min after injection): 88%
- Decay of plasma/blood radioactivity, t1/2 ([3]; 60–130 μg, cubital vein): 2.6 to 5.5 min
- eliminated from blood ([3]; after 10 min): 90%
- time to appearance of degradation products in the supernatant (LSECs; LSEC cultures, 37°C, after addition of ligand, ref Smedsrød et al. (1984)): ≤ 30 min
- time to steady state levels of internalized ligand and degradation products (LSECs; LSEC cultures, 37°C, into the incubation, ref Smedsrød et al. (1984)): 60 to 75 min
- injected radioactivity found in Kupffer cells [6]: none
- injected radioactivity found in the cytoplasm of LSECs [6]: approximately 90%

- Kd ([1]; endocytic hyaluronan receptor of LSECs, ref Laurent et al., 1986b, read-out: dissociation constant): 9 pM
Molecule: hyaluronan [hyaluronan of 6.4 × 10^6 Da]

B1: ^125I-TC-nidogen: nidogen labeled with 125I-tyramine cellobiose (protein, UniProt P14543 29-1247, looked up)
Nidogen-1: LSRQELFPFGPGQGDLELEDGDDFVSPALELSGALRFYDRSDIDAVYVTTNGIIATSEPPAKESHPGLFPPTFGAVAPFLADLDTTDGLGKVYYREDLSPSITQRAAECVHRGFPEISFQPSSAVVVTWESVAPYQGPSRDPDQKGKRNTFQAVLASSDSSSYAIFLYPEDGLQFHTTFSKKENNQVPAVVAFSQGSVGFLWKSNGAYNIFANDRESVENLAKSSNSGQQGVWVFEIGSPATTNGVVPADVILGTEDGAEYDDEDEDYDLATTRLGLEDVGTTPFSYKALRRGGADTYSVPSVLSPRRAATERPLGPPTERTRSFQLAVETFHQQHPQVIDVDEVEETGVVFSYNTDSRQTCANNRHQCSVHAECRDYATGFCCSCVAGYTGNGRQCVAEGSPQRVNGKVKGRIFVGSSQVPIVFENTDLHSYVVMNHGRSYTAISTIPETVGYSLLPLAPVGGIIGWMFAVEQDGFKNGFSITGGEFTRQAEVTFVGHPGNLVIKQRFSGIDEHGHLTIDTELEGRVPQIPFGSSVHIEPYTELYHYSTSVITSSSTREYTVTEPERDGASPSRIYTYQWRQTITFQECVHDDSRPALPSTQQLSVDSVFVLYNQEEKILRYALSNSIGPVREGSPDALQNPCYIGTHGCDTNAACRPGPRTQFTCECSIGFRGDGRTCYDIDECSEQPSVCGSHTICNNHPGTFRCECVEGYQFSDEGTCVAVVDQRPINYCETGLHNCDIPQRAQCIYTGGSSYTCSCLPGFSGDGQACQDVDECQPSRCHPDAFCYNTPGSFTCQCKPGYQGDGFRCVPGEVEKTRCQHEREHILGAAGATDPQRPIPPGLFVPECDAHGHYAPTQCHGSTGYCWCVDRDGREVEGTRTRPGMTPPCLSTVAPPIHQGPAVPTAVIPLPPGTHLLFAQTGKIERLPLEGNTMRKTEAKAFLHVPAKVIIGLAFDCVDKMVYWTDITEPSIGRASLHGGEPTTIIRQDLGSPEGIAVDHLGRNIFWTDSNLDRIEVAKLDGTQRRVLFETDLVNPRGIVTDSVRGNLYWTDWNRDNPKIETSYMDGTNRRILVQDDLGLPNGLTFDAFSSQLCWVDAGTNRAECLNPSQPSRRKALEGLQYPFAVTSYGKNLYFTDWKMNSVVALDLAISKETDAFQPHKQTRLYGITTALSQCPQGHNYCSVNNGGCTHLCLATPGSRTCRCPDNTLGVDCIEQK
modifications: 125I-tyramine cellobiose label
notes: nidogen labeled with 125I-tyramine cellobiose
- recovered in liver (rat, after 1 h, ref Smedsrød et al., 1989): 78%
- Decay of plasma/blood radioactivity, t1/2 (rat, trace amounts, tail vein, ref Smedsrød et al., 1989): 2 to 3 min
